In ChEMBL document CHEMBL3045997, “Some remarkable reactions of the diterpene eriocephalin: Neo-clerodane derivatives with insect antifeedant activity” (1994) one finds AFC50 and AFI data, which are given here for nine compounds.

Test [1] has as its system Spodoptera littoralis. Description: Antifeedant activity against Spodoptera littoralis larvae fed on compound-treated disk after 18 hr by two-choice assay. Type of test: functional.
The subject of test [2] is Spodoptera littoralis. Description: Antifeedant activity against Spodoptera littoralis larvae fed on compound-treated disk at 100 ppm after 18 hr by two-choice assay. Type of test: functional.

A value given as a limit tells only on which side of the number the result lay.

On to `CC(=O)O[C@@H]1O[C@H](c2ccoc2)C[C@]12[C@H](C)[C@@H](OC(C)=O)C(=O)[C@H]1[C@@H]2CCC[C@@]12CO[C@H](C)O2`, for which the AFC50 with Spodoptera littoralis [1] is reported as over 1000 ppm. Also, the AFI in the test on Spodoptera littoralis [2] is listed as -5.4%.
As for `CC(=O)O[C@@H]1O[C@H](c2ccoc2)C[C@]12[C@H](C)[C@@H](OC(C)=O)C(=O)[C@H]1[C@@H]2CCC[C@@]12CO[C@@H](C)O2`, the AFC50 in the test on Spodoptera littoralis [1] was over 390 ppm. In addition, the AFI in the test on Spodoptera littoralis [2] was determined as 34.1%.
In the test with Spodoptera littoralis [1], `CC(=O)OC[C@]12[C@H](CCC[C@]13CO3)[C@@]1(C[C@@H](c3ccoc3)O[C@H]1OC(C)=O)[C@H](C)[C@@H](OC(C)=O)[C@@H]2O` registered an AFC50 of over 1000 ppm. In addition, the AFI with Spodoptera littoralis [2] is on record as -21.1%.
`CC(=O)OC[C@]12[C@H](CCC[C@]13CO3)[C@@]1(C[C@@H](c3ccoc3)O[C@@H]1OC(C)=O)[C@H](C)[C@@H](OC(C)=O)[C@@H]2OC(C)=O` showed an AFC50 in the test on Spodoptera littoralis [1] of over 1000 ppm. Further, the AFI in the test with Spodoptera littoralis [2] was found to be 26.7%.
In the test on Spodoptera littoralis [1], `CC(=O)OC[C@]12[C@H](CCC[C@]13CO3)[C@@]1(C[C@@H](c3ccoc3)O[C@@H]1O)[C@H](C)[C@@H](OC(C)=O)[C@@H]2OC(C)=O` registered an AFC50 of over 1000 ppm. Moreover, the AFI in the test on Spodoptera littoralis [2] is recorded as -14.3%.
The corresponding values for `CC(=O)OC[C@]12[C@H](CCC[C@]13CO3)[C@@]1(C[C@@H](c3ccoc3)O[C@@H]1O)[C@H](C)[C@@H](OC(C)=O)[C@@H]2O` are over 1000 ppm and 5.4%.
For `CC(=O)OC[C@]12[C@H](CCC[C@]13CO3)[C@@]1(C[C@@H](c3ccoc3)O[C@@H]1O)[C@H](C)[C@@H](O)[C@@H]2OC(C)=O`, in the test with Spodoptera littoralis [1], the AFC50 was found to be 39 ppm. Besides, the AFI in the test on Spodoptera littoralis [2] came out at 54%.
On the same counts, the results for `CC(=O)OC[C@]12[C@H](CCC[C@]13CO3)[C@@]1(C[C@@H](c3ccoc3)O[C@@H]1O)[C@H](C)[C@@H](O)[C@@H]2O` are 300 ppm and 30.4%.
Compound `CC(=O)OC[C@]12C(=O)[C@H](O)[C@@H](C)[C@]3(C[C@@H](c4ccoc4)O[C@H]3OC(C)=O)[C@H]1CCC[C@]21CO1` [ERIOCEPHALIN] registered an AFC50 with Spodoptera littoralis [1] of over 1000 ppm. Moreover, in the test on Spodoptera littoralis [2], the AFI was 5.5%.
